Test results published in PubChem BioAssay AID1259407 (Chemical Carcinogenesis Research Information System (CCRIS), 2018).
Calls of active or inactive are those of the source. The rule behind the calls is not given here.

Tested on: CCRIS mutagenicity, Ames/micronucleus/aberration tests
Assay: CCRIS mutagenicity studies
[1] = Test System: AMES SALMONELLA TYPHIMURIUM, Strain/Indicator: TA98, Metabolic Activation: NONE, Method: STANDARD PLATE
[2] = Test System: AMES SALMONELLA TYPHIMURIUM, Strain/Indicator: TA98, Metabolic Activation: RAT, LIVER, S-9, AROCLOR 1254, Method: STANDARD PLATE
[3] = Test System: AMES SALMONELLA TYPHIMURIUM, Strain/Indicator: TA100, Metabolic Activation: NONE, Method: STANDARD PLATE
[4] = Test System: AMES SALMONELLA TYPHIMURIUM, Strain/Indicator: TA100, Metabolic Activation: RAT, LIVER, S-9, AROCLOR 1254, Method: STANDARD PLATE
[5] = Test System: AMES SALMONELLA TYPHIMURIUM, Strain/Indicator: TA1535, Metabolic Activation: NONE, Method: STANDARD PLATE

Compound: Nc1c(S(=O)(=O)O)cc(NC2CCCCC2)c2c1C(=O)c1ccccc1C2=O
- mutagenic call [1]: inactive; negative
- mutagenic call [2]: inactive; negative
- mutagenic call [3]: inactive; negative
- mutagenic call [4]: inactive; negative
- mutagenic call [5]: inactive; negative
- mutagenic call (Test System: AMES SALMONELLA TYPHIMURIUM, Strain/Indicator: TA1535, Metabolic Activation: RAT, LIVER, S-9, AROCLOR 1254, Method: STANDARD PLATE): inactive; negative
- mutagenic call (Test System: AMES SALMONELLA TYPHIMURIUM, Strain/Indicator: TA1537, Metabolic Activation: NONE, Method: STANDARD PLATE): inactive; negative
- mutagenic call (Test System: AMES SALMONELLA TYPHIMURIUM, Strain/Indicator: TA1537, Metabolic Activation: RAT, LIVER, S-9, AROCLOR 1254, Method: STANDARD PLATE): inactive; negative
- mutagenic call (Test System: AMES SALMONELLA TYPHIMURIUM, Strain/Indicator: TA1538, Metabolic Activation: NONE, Method: STANDARD PLATE): inactive; negative
- mutagenic call (Test System: AMES SALMONELLA TYPHIMURIUM, Strain/Indicator: TA1538, Metabolic Activation: RAT, LIVER, S-9, AROCLOR 1254, Method: STANDARD PLATE): inactive; negative

Compound: Nc1ccccc1SCCSc1ccccc1N
- mutagenic call [2]: inactive; negative
- mutagenic call [4]: active; positive

Compound: CCCCCC(=O)N=c1sn(C(=O)CCCCC)c2ccc([N+](=O)[O-])cc12
- mutagenic call (Test System: AMES SALMONELLA TYPHIMURIUM, Strain/Indicator: TA100, Metabolic Activation: S-9, Method: STANDARD PLATE): active; positive

Compound: C=CC1CO1 (stereo not given)
- mutagenic call (End Point: IN VIVO CHROMOSOMAL ABERRATIONS, Test System: BONE MARROW CELLS, Species: MOUSE, Strain/Sex: C57B1/6/MALE, Route: IP INJECTION (ONCE)): active; positive
- mutagenic call (End Point: IN VIVO MICRONUCLEUS, Test System: BONE MARROW POLYCHROMATIC ERYTHROCYTES, Species: MOUSE, Strain/Sex: C57/BL/MALE, Route: INTRAPERITONEAL INJECTION): active; positive
- mutagenic call (End Point: IN VIVO MICRONUCLEUS, Test System: PERIPHERAL BLOOD RETICULOCYTES, Species: MOUSE, Strain/Sex: BALB/C/MALE, Route: IP INJECTION, ONCE): active; positive
- mutagenic call (End Point: IN VIVO MICRONUCLEUS, Test System: SPERMATID, Species: RAT, Strain/Sex: SPRAGUE-DAWLEY/MALE, Route: IP INJECTION): active; positive
- mutagenic call (End Point: IN VIVO MICRONUCLEUS, Test System: SPERMATIDS, Species: MOUSE, Strain/Sex: (102XC3H)F1/MALE, Route: IP INJECTION): active; positive only at 14 d and higher dose levels
- mutagenic call (End Point: IN VIVO MICRONUCLEUS, Test System: SPERMATIDS, Species: MOUSE, Strain/Sex: BALB/C/MALE, Route: IP INJECTION, ONCE): active; positive (positive in golgi-phase and at highest dose after 14 or 16 d)
- mutagenic call (End Point: IN VIVO MICRONUCLEUS, Test System: SPERMATIDS, Species: RAT, Strain/Sex: LEWIS/MALE, Route: IP INJECTION): active; positive
- mutagenic call (End Point: IN VIVO MICRONUCLEUS, Test System: SPLENOCYTES, Species: MOUSE, Strain/Sex: (102XC3H)F1/MALE, Route: IP INJECTION): active; positive
- mutagenic call (End Point: IN VIVO MICRONUCLEUS, Test System: SPLENOCYTES, Species: MOUSE, Strain/Sex: BALB/C, Route: IP): active; positive only for 48.8 mg dose at either 2 or 16 d after treatment
- mutagenic call (End Point: IN VIVO MICRONUCLEUS, Test System: SPLENOCYTES, Species: RAT, Strain/Sex: LEWIS/MALE, Route: IP INJECTION): active; positive
- mutagenic call [1]: inactive; negative
- mutagenic call (Test System: AMES SALMONELLA TYPHIMURIUM, Strain/Indicator: TA100, Metabolic Activation: HAMSTER, LIVER, S-9, AROCLOR 1254 (10%), Method: PREINCUBATION): active; positive
- mutagenic call (Test System: AMES SALMONELLA TYPHIMURIUM, Strain/Indicator: TA100, Metabolic Activation: NONE, Method: PREINCUBATION): active; positive
- mutagenic call [3]: active; positive
- mutagenic call (Test System: AMES SALMONELLA TYPHIMURIUM, Strain/Indicator: TA100, Metabolic Activation: RAT, LIVER, S-9, AROCLOR 1254 (10%), Method: PREINCUBATION): active; positive
- mutagenic call [4]: active; positive
- mutagenic call (Test System: AMES SALMONELLA TYPHIMURIUM, Strain/Indicator: TA1535, Metabolic Activation: HAMSTER, LIVER, S-9, AROCLOR 1254 (10%), Method: PREINCUBATION): active; positive
- mutagenic call (Test System: AMES SALMONELLA TYPHIMURIUM, Strain/Indicator: TA1535, Metabolic Activation: NONE, Method: PREINCUBATION): active; positive
- mutagenic call [5]: active; positive
- mutagenic call (Test System: AMES SALMONELLA TYPHIMURIUM, Strain/Indicator: TA1535, Metabolic Activation: RAT, LIVER, S-9, AROCLOR 1254 (10%), Method: PREINCUBATION): active; positive
- mutagenic call (Test System: UDS MOUSE SPERM CELL, Strain/Indicator: THY INCORP, Metabolic Activation: IN VIVO, Method: LIQUID SCINTILLATION COUNTING): inactive; negative
- mutagenic call (Test System: UDS RODENT HEPATOCYTES, Strain/Indicator: THY INCORP (NON-S-PHASE), Metabolic Activation: NONE, Method: AUTORADIOGRAPHY): inactive; negative
